Experimental data: PMC6017588, “Synthesis and Structure-Activity Relationships of LP1 Derivatives: N-Methyl-N-phenylethylamino Analogues as Novel MOR Agonists” (Molecules : A Journal of Synthetic Chemistry and Natural …, 2018)
Structures can show the parent of a compound that is named as a salt. Where two headings read alike, the source gives them in different places.

Legend:
DOR [1] = biological target: T1, DOR (Rattus norvegicus, UniProt P33533); test: DOR competitive radioligand binding ([3H]-DPDPE displacement, rat brain membranes)
T1 construct: from tissue; host or cells: rat brain membranes

MOR [2] = biological target: T2, MOR (Rattus norvegicus, UniProt P33535); test: Inhibition of forskolin-stimulated cAMP accumulation in HEK293 cells stably expressing MOR; type: cell-based; conditions: for Emax: maximal percent inhibition of cAMP accumulation, read-out: Imax (%) ± SD MOR
Method: As typical Gi/o coupled receptor, MOR, DOR and KOR signals are mediated by AC inhibition.
(§1) Cell culture. HEK293 cells stably expressing either the EE-tagged MOR or the flag-tagged KOR [20, 21, 22] were grown in Dulbecco’s modified Eagle’s medium (DMEM) supplemented with 10% fetal calf serum, 2 mM glutamine, 100 U/mL penicillin, and 0.1 mg/mL streptomycin under 5% CO2 at 37 °C.
(§2) Measurements of cAMP accumulation. Measurements of AC activity were performed as described by Papakonstantinou et al. or the GloSensor cAMP Assay (Promega) following the Manufacturer’s instructions. The generation of cAMP was assessed in response to treatment of the cells with various concentrations of the appropriate ligand (10 pM–50 μΜ) using 50 μΜ forskolin at 37 °C. Values are means ± SD of triplicate determinations from three independent experiments. Analysis of the data was performed using Origin 7.5 software (OriginLab Corporation, Northampton, MA, USA).

KOR [3] = biological target: T3, KOR (Cavia porcellus, UniProt P41144); test: KOR competitive radioligand binding ([3H]-(+)-U69,593 displacement, guinea pig brain membranes)
T3 construct: from tissue; host or cells: guinea pig brain membranes

[4] = tested on: acute thermal nociception; test: Radiant heat tail flick test in mice; type: in vivo, mouse
Method: The MOR agonist 5c was evaluated for acute agonistic effects in mice. In detail, it was tested for its ability to produce antinociception in the mouse tail flick test at the dose-range of 1–7 mg/kg intraperitoneal (ip) injected. The compound produced a dose-dependent analgesic effect compared to the group of mice treated with saline (* p < 0.05 vs. saline-treated mice).
Animals. Male Swiss […] mice (Envigo Laboratories, S. Pietro al Natisone (UD), Italy) weighing 25–30 g were housed six to a cage. Animals were kept at a constant room temperature (25 ± 1 °C) under a 12:12 h light and dark cycle with free access to food and water. Each mouse was used for only one experiment.
Nociceptive Test. Nociception was evaluated by the radiant heat tail-flick test. Briefly, it consisted of irradiation of the lower third of the tail with an infrared source (Ugo Basile, Comerio, Italy). The day before the experiment, mice were habituated to the procedure for measuring nociception threshold. Experiments were performed at room temperature (25 ± 1 °C). The basal pre-drug latency was established between 3 and 5 s and was calculated as the average of the first three measurements, which were performed at 5 min intervals. A cut-off latency of 15 s was established to minimize damage to the tail. All tested compounds were dissolved in pyrogen-free isotonic saline (Baxter Healthcare, Deerfield, IL, USA) and DMSO (5%) and were administered to mice ip. Post-treatment tail flick latencies (TFLs) were determined at 30, 45, 60, 75 and 90 min after ip injection.
Statistical Analysis. All values were presented as means ± SD. Intergroup comparisons were assessed using an initial two-way analysis of variance (ANOVA) followed by Duncan’s multiple range post-hoc test. Differences were considered significant when * p < 0.05. Effective dose-50 (ED50) values were calculated using least-squares linear regression analysis followed by calculation of 95% confidence limits (95% CL) by the method of Bliss.

MOR [5] = biological target: T2, MOR; test: MOR competitive radioligand binding ([3H]-DAMGO displacement, rat brain membranes); design: from tissue; host or cells: rat brain membranes
KOR [6] = biological target: T4, KOR (Homo sapiens, UniProt P41145); test: Inhibition of forskolin-stimulated cAMP accumulation in HEK293 cells stably expressing KOR; type: cell-based; conditions: for cAMP inhibition / Imax (%) ± SD KOR: HEK293-KOR; for cAMP inhibition: only at very high concentrations, not dose-dependent; for Imax (%) ± SD KOR: maximal percent inhibition of cAMP accumulation
T4 construct: FLAG; expressed in transfected cells
Method: As typical Gi/o coupled receptor, MOR, DOR and KOR signals are mediated by AC inhibition. Given the significant MOR and moderate KOR affinity, to examine the functional role of target compounds, in opioid receptor signaling, the ability of 5a–d and 6a–d to affect forskolin-stimulated AC activity in HEK293 cells stably expressing the MOR or KOR was tested and the results are reported in Table 2.
as §1, §2

[7] = design: method as in PMID 22100511, PMID 22580287; conditions: in vivo tested; cited from earlier work
DOR [8] = tested on: DOR; design: method as in PMID 20599386; conditions: earlier work; read-out: IC50 DOR (intrinsic activity); cited from earlier work

C[C@H]1[C@H]2Cc3ccc(O)cc3[C@]1(C)CCN2CCN(C)c1ccccc1 [5c, (2R,6R,11R)-6,11-Dimethyl-{2-[methyl(phenyl)amino]ethyl}-1,2,3,4,5,6-hexahydro-2,6-methano-3-benzazocin-8-ol]
Ki (DOR [1]): 147 ± 5.7 nM | Functional profile at MOR (MOR [2]; cAMP accumulation): MOR agonist | Emax (MOR [2]): 72% | Ki (KOR [3]): 31 ± 1.3 nM | ED50 ([4]; 0.75 h, mouse tail flick, ip, 45 min post-treatment, read-out: ED50 (95% CL)): 4.33 mg/kg | Time of maximal antinociceptive activity ([4]; after ip injection, mouse tail flick): 45 min | Duration of significant antinociceptive activity ([4]; highest dose (7 mg/kg ip), after injection): 75 min | Effect of naloxone pretreatment on antinociception ([4]; naloxone 3 mg/kg sc, 30 min prior to 5c, data not shown): prevented its antinociceptive effect | Ki (MOR [5]): 6.1 ± 0.5 nM | cAMP inhibition (KOR [6]): 30%

Oc1ccc2c3c1O[C@H]1c4[nH]c5ccccc5c4C[C@@]4(O)[C@@H](C2)N(CC2CC2)CC[C@]314 [Naltrindole, reference compound]
Ki (DOR [1]): 1.13 ± 0.1 nM

C[C@H]1[C@H]2Cc3ccc(O)cc3[C@]1(C)CCN2CCNC1CCCCC1 [5b, (2R,6R,11R)-3-[2-(Cyclohexylamino)ethyl)-6,11-dimethyl-1,2,3,4,5,6-hexahydro-2,6-methano-3-benzazocin-8-ol]
Ki (DOR [1]): 70 ± 2 nM | Emax (MOR [2]): 28 ± 1% | Ki (KOR [3]): 19.8 ± 0.9 nM | Ki (MOR [5]): 8.3 ± 0.8 nM | IC50 (KOR [6]): 0.18 ± 0.05 µM | Imax (%) ± SD KOR (KOR [6]): 58 ± 4%

C[C@H]1[C@H]2Cc3ccc(O)cc3[C@]1(C)CCN2CCCNC1CCCCC1 [6b, (2R,6R,11R)-3-[3-(Cyclohexylamino)propyl)-6,11-dimethyl-1,2,3,4,5,6-hexahydro-2,6-methano-3-benzazocin-8-ol]
Ki (DOR [1]): > 5000 nM | Ki (KOR [3]): 126 ± 4.5 nM | Ki (MOR [5]): 48 ± 1.4 nM | IC50 (KOR [6]): > 5 µM | Imax (%) ± SD KOR (KOR [6]): 44 ± 3%

C[C@@H](NC(=O)[C@@H](N)Cc1ccc(O)cc1)C(=O)NCC(=O)N(C)[C@@H](Cc1ccccc1)C(=O)NCCO [DAMGO, reference compound]
Emax (MOR [2]): 73 ± 0.3%

C[C@H]1[C@H]2Cc3ccc(O)cc3[C@]1(C)CCN2CCNC1CCCCC1 (as salt: oxalate) [5b, (2R,6R,11R)-3-[2-(Cyclohexylamino)ethyl)-6,11-dimethyl-1,2,3,4,5,6-hexahydro-2,6-methano-3-benzazocin-8-ol]
melting point: 153 to 155 °C

C[C@H]1[C@H]2Cc3ccc(O)cc3[C@]1(C)CCN2CCCNC1CCCCC1 (as salt: oxalate) [6b, (2R,6R,11R)-3-[3-(Cyclohexylamino)propyl)-6,11-dimethyl-1,2,3,4,5,6-hexahydro-2,6-methano-3-benzazocin-8-ol]
melting point: 136 to 138 °C

CCN(CCN1CC[C@@]2(C)c3cc(O)ccc3C[C@@H]1[C@@H]2C)c1ccccc1 [5d, (2R,6R,11R)-6,11-Dimethyl-{2-[ethyl(phenyl)amino]ethyl}-1,2,3,4,5,6-hexahydro-2,6-methano-3-benzazocin-8-ol]
Ki (DOR [1]): 411 ± 14 nM | Emax (MOR [2]): 55 ± 3% | Ki (KOR [3]): 28.7 ± 1 nM | Ki (MOR [5]): 160 ± 7 nM | cAMP inhibition (KOR [6]): 30%

C[C@H]1[C@H]2Cc3ccc(O)cc3[C@]1(C)CCN2CCCN(C)c1ccccc1 (as salt: oxalate) [6c, (2R,6R,11R)-6,11-Dimethyl-{3-[methyl(phenyl)amino]propyl}-1,2,3,4,5,6-hexahydro-2,6-methano-3-benzazocin-8-ol]
melting point: 140 to 142 °C

C[C@H]1[C@H]2Cc3ccc(O)cc3[C@]1(C)CCN2CCCNc1ccccc1 (as salt: oxalate) [6a, (2R,6R,11R)-3-(3-Anilinopropyl)-6,11-dimethyl-1,2,3,4,5,6-hexahydro-2,6-methano-3-benzazocin-8-ol]
melting point: 149 to 150 °C

CCN(CCCN1CC[C@@]2(C)c3cc(O)ccc3C[C@@H]1[C@@H]2C)c1ccccc1 [6d, (2R,6R,11R)-6,11-Dimethyl-{3-[ethyl(phenyl)amino]propyl}-1,2,3,4,5,6-hexahydro-2,6-methano-3-benzazocin-8-ol]
Ki (DOR [1]): 1060 ± 152 nM | Emax (MOR [2]): 40 ± 2% | Ki (KOR [3]): 56 ± 1.7 nM | Ki (MOR [5]): 86 ± 3 nM | cAMP inhibition (KOR [6]): 30%

C[C@H]1[C@H]2Cc3ccc(O)cc3[C@]1(C)CCN2CCNc1ccccc1 (as salt: oxalate) [5a, (2R,6R,11R)-3-(2-Anilinoethyl)-6,11-dimethyl-1,2,3,4,5,6-hexahydro-2,6-methano-3-benzazocin-8-ol]
melting point: 145 to 146 °C

C[C@H]1[C@H]2Cc3ccc(O)cc3[C@]1(C)CCN2CCCNc1ccccc1 [6a, (2R,6R,11R)-3-(3-Anilinopropyl)-6,11-dimethyl-1,2,3,4,5,6-hexahydro-2,6-methano-3-benzazocin-8-ol]
Ki (DOR [1]): 117 ± 5.2 nM | Emax (MOR [2]): 50 ± 3% | Ki (KOR [3]): 71 ± 2 nM | Ki (MOR [5]): 7 ± 0.6 nM | IC50 (KOR [6]): 1.4 ± 0.069 µM | Imax (%) ± SD KOR (KOR [6]): 53 ± 4%

C[C@H]1[C@H]2Cc3ccc(O)cc3[C@]1(C)CCN2CCCN(C)c1ccccc1 [6c, (2R,6R,11R)-6,11-Dimethyl-{3-[methyl(phenyl)amino]propyl}-1,2,3,4,5,6-hexahydro-2,6-methano-3-benzazocin-8-ol]
Ki (DOR [1]): > 5000 nM | Emax (MOR [2]): 50 ± 3% | Ki (KOR [3]): 94 ± 3.5 nM | Ki (MOR [5]): 68 ± 1.6 nM | cAMP inhibition (KOR [6]): 30%

CCN(CCN1CC[C@@]2(C)c3cc(O)ccc3C[C@@H]1[C@@H]2C)c1ccccc1 (as salt: oxalate) [5d, (2R,6R,11R)-6,11-Dimethyl-{2-[ethyl(phenyl)amino]ethyl}-1,2,3,4,5,6-hexahydro-2,6-methano-3-benzazocin-8-ol]
melting point: 158 to 160 °C

C[C@H]1[C@H]2Cc3ccc(O)cc3[C@]1(C)CCN2CCNc1ccccc1 [5a, (2R,6R,11R)-3-(2-Anilinoethyl)-6,11-dimethyl-1,2,3,4,5,6-hexahydro-2,6-methano-3-benzazocin-8-ol]
Ki (DOR [1]): 270 ± 10 nM | Emax (MOR [2]): 60 ± 4% | Ki (KOR [3]): 100 ± 5 nM | Ki (MOR [5]): 83 ± 30 nM | IC50 (KOR [6]): 1 ± 0.065 µM

CCN(CCCN1CC[C@@]2(C)c3cc(O)ccc3C[C@@H]1[C@@H]2C)c1ccccc1 (as salt: oxalate) [6d, (2R,6R,11R)-6,11-Dimethyl-{3-[ethyl(phenyl)amino]propyl}-1,2,3,4,5,6-hexahydro-2,6-methano-3-benzazocin-8-ol]
melting point: 138 to 139 °C

C[C@H]1[C@H]2Cc3ccc(O)cc3[C@]1(C)CCN2CCC(=O)Nc1ccccc1 [LP1, reference compound]
ED50 (analgesia) [7]: 2.03 mg/kg | IC50 (DOR [8]): 0.012 µM | Ki (DOR [1]; [3H]DPDPE displacement, rat brain membranes, read-out: Ki (nM) ± SEM DOR): 29.1 ± 1 nM | Emax (MOR [2]): 73 ± 3.8% | Ki (KOR [3]; [3H]U69,593 displacement, guinea pig brain membranes, read-out: Ki (nM) ± SEM KOR): 110 ± 6 nM | Ki (MOR [5]; [3H]DAMGO displacement, rat brain membranes, read-out: Ki (nM) ± SEM MOR): 0.83 ± 0.05 nM
